Assay results published in patent US20100113421A1, “NON-NUCLEOSIDE REVERSE TRANSCRIPTASE INHIBITORS” (priority 2006, published 2010).

Tested on: HIV strain containing the Y181C mutation
Test: Spread assay, Y181C mutant strain
Assay type: cell-based
Details: Human immunodeficiency virus 1; spread assay, 10% FBS, Y181C mutant strain; read-out: CIC95
Method in brief: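 Acute HIV-1 infection of T-lymphoid cells run in the presence of 10% FBS, […]; potency expressed as CIC95.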

SMILES	IC95
CCCc1c(C(=O)N(C)Cc2ccc3ncccc3c2)[nH]c(C(N)=O)c1S(=O)(=O)c1ccccc1 [Example 65, N-methyl-4-(phenylsulfonyl)-3-propyl-N-(6-quinolinylmethyl)-1H-pyrrole-2,5-dicarboxamide]	< 8 µM
CCCCc1c(C(=O)N(C)Cc2ccc3ncccc3c2)[nH]c(C(N)=O)c1S(=O)(=O)c1ccccc1 [Example 66, 3-butyl-N-methyl-4-(phenylsulfonyl)-N-(6-quinolinylmethyl)-1H-pyrrole-2,5-dicarboxamide]	< 8 µM
CCCCc1c(C(=O)N(C)Cc2ccc3ncccc3c2)[nH]c(C(N)=O)c1S(=O)(=O)c1cccc(C)c1 [Example 67, 3-butyl-N-methyl-4-(3-methylphenylsulfonyl)-N-(6-quinolinylmethyl)-1H-pyrrole-2,5-dicarboxamide]	< 8 µM
CCCCc1c(C(=O)N(C)Cc2ccc3ncccc3c2)[nH]c(C(N)=O)c1S(=O)(=O)c1cccc(Cl)c1 [Example 68, 3-butyl-4-[(3-chlorophenyl)sulfonyl]-N-methyl-N-(6-quinolinylmethyl)-1H-pyrrole-2,5-dicarboxamide]	< 8 µM
CCCCc1c(C(=O)N(C)Cc2ccc3ncccc3c2)[nH]c(C(N)=O)c1S(=O)(=O)c1cc(C)cc(C)c1 [Example 69, 3-butyl-4-[(3,5-dimethylphenyl)sulfonyl]-N-methyl-N-(6-quinolinylmethyl)-1H-pyrrole-2,5-dicarboxamide]	< 8 µM
CCCCc1c(C(=O)N(C)Cc2ccc3ncccc3c2)[nH]c(C(N)=O)c1S(=O)(=O)c1cc(Cl)cc(Cl)c1 [Example 70, 3-butyl-4-[(3,5-dichlorophenyl)sulfonyl]-N-methyl-N-(6-quinolinylmethyl)-1H-pyrrole-2,5-dicarboxamide]	< 8 µM
Cc1c(C(=O)N(C)Cc2ccc(Cl)cc2Cl)[nH]c(C(=O)NCc2n[nH]c3ccccc23)c1S(=O)(=O)c1ccccc1 [Example 71, N-(2,4-Dichlorobenzyl)-N′-(1H-indazol-3-ylmethyl)-N,3-dimethyl-4-(phenylsulfonyl)-1H-pyrrole-2,5-dicarboxamide]	< 8 µM
CNC(=O)c1[nH]c(C(=O)N(C)Cc2ccc(Cl)cc2Cl)c(C)c1S(=O)(=O)c1ccccc1 [Example 72, N-(2,4-dichlorobenzyl)-N,N′,3-trimethyl-4-(phenylsulfonyl)-1H-pyrrole-2,5-dicarboxamide]	< 8 µM
Cc1cnccc1CNC(=O)c1[nH]c(C(=O)N(C)Cc2ccc(Cl)cc2Cl)c(C)c1S(=O)(=O)c1ccccc1 [Example 73, N-(2,4-dichlorobenzyl)-N,3-dimethyl-N′-[(3-methyl-4-pyridinyl)methyl]-4-(phenylsulfonyl)-1H-pyrrole-2,5-dicarboxamide]	< 8 µM
Cc1c(C(=O)N(C)Cc2ccc(Cl)cc2Cl)[nH]c(C(=O)NCc2ccccn2)c1S(=O)(=O)c1ccccc1 [Example 74, N-(2,4-dichlorobenzyl)-N,3-dimethyl-4-(phenylsulfonyl)-N′-(2-pyridinylmethyl)-1H-pyrrole-2,5-dicarboxamide]	< 8 µM
Cc1c(C(=O)N(C)Cc2ccc(Cl)cc2Cl)[nH]c(C(=O)NCc2cccnc2)c1S(=O)(=O)c1ccccc1 [Example 75, N-(2,4-dichlorobenzyl)-N,3-dimethyl-4-(phenylsulfonyl)-N′-(3-pyridinylmethyl)-1H-pyrrole-2,5-dicarboxamide]	< 8 µM
Cc1c(C(=O)N(C)Cc2ccc(Cl)cc2Cl)[nH]c(C(=O)NCc2nccs2)c1S(=O)(=O)c1ccccc1 [Example 76, N-(2,4-dichlorobenzyl)-N,3-dimethyl-4-(phenylsulfonyl)-N′-(1,3-thiazol-2-ylmethyl)-1H-pyrrole-2,5-dicarboxamide]	< 8 µM
Cc1c(C(=O)N(C)Cc2ccc(Cl)cc2Cl)[nH]c(C(=O)NCc2c(F)cccc2Cl)c1S(=O)(=O)c1ccccc1 [Example 77, N′-(2-chloro-6-fluorobenzyl)-N-(2,4-dichlorobenzyl)-N,3-dimethyl-4-(phenylsulfonyl)-1H-pyrrole-2,5-dicarboxamide]	< 8 µM
